{"source": "paper PMC10499603", "about": "“Polθ is phosphorylated by PLK1 to repair double-strand breaks in mitosis” (Nature, 2023)", "molecules": {"B1": {"name": "phosphorylated recombinant Polθ fragment (E1424–Q1503) (domain or fragment, human, UniProt O75417 1424-1503, looked up)", "chain": "EENGLFLKKNEVSVTDSQLNSFLQGYQTQETVKPVILLIPQKRTPTGVEGECLPVPETSLNMSDSLLFDSFSDDYLVKEQ", "modifications": "15N-labelled; phosphorylated by PLK1, sites include S1482, S1486, S1488 and S1493", "notes": "DNA polymerase theta (Polθ), human, residues E1424-Q1503; also called phosphorylated Polθ E1424–Q1503 fragment; Polθ protein fragment F1 (phosphorylated); source: E. coli BL21 (DE3) Star, purified (HisTrap, TEV cleavage, reverse HisTrap), then phosphorylated with PLK1; not shown: GB1, C-terminal, cleaved; His6, C-terminal, cleaved"}, "B2": {"name": "non-phosphorylated recombinant Polθ fragment (E1424–Q1503) (domain or fragment, human, UniProt O75417 1424-1503, looked up)", "chain": "B1 chain", "modifications": "15N-labelled", "notes": "DNA polymerase theta (Polθ), human, residues E1424-Q1503; also called non-phosphorylated Polθ fragment from Glu1424 to Gln1503; Polθ protein fragment F1; source: E. coli BL21 (DE3) Star, purified (HisTrap, TEV cleavage, reverse HisTrap); not shown: GB1, C-terminal, cleaved; His6, C-terminal, cleaved"}, "B3": {"name": "phosphorylated recombinant Polθ fragment (E1424–Q1503): recombinant Polθ fragment E1424–Q1503 phosphorylated by PLK1 (protein)", "chain": "B1 chain", "modifications": "15N-labelled; phosphorylated by PLK1, sites include S1482, S1486, S1488 and S1493; left off: GB1, C-terminal, cleaved | His6, C-terminal, cleaved"}, "B4": {"name": "non-phosphorylated recombinant Polθ (E1424–Q1503): recombinant Polθ fragment E1424–Q1503 from E. coli (protein, UniProt O75417 1424-1503, looked up, fragment)", "chain": "B1 chain"}}, "key": {"Polθ foci in mitosis": {"tested_on": "Polθ foci in mitosis", "assay": "Polθ foci in mitosis after siRNA", "assay_type": "cell-based, human", "conditions": "siRNA knockdown", "description": "(§1) Transfection of siRNA oligonucleotides (Eurofins) was performed using Lipofectamine RNAiMax (ThermoFisher Scientific) following the manufacturer’s instructions.\n(§2) Cells grown on coverslips were fixed for 15 min in 2% paraformaldehyde, permeabilized for 10 min in 0.5% Triton X-100, blocked for 30 min in BSA 5%, 0.1% Triton X-100, immunostained for 1 h with primary antibodies, 45 min with secondary antibodies (Highly Cross-Adsorbed Secondary Antibodies Alexa Fluor, ThermoFisher Scientific) and mounted Vectashield mounting medium containing DAPI (Vector Laboratories). The same protocol was applied to mitotic cells, which were collected by shake off and centrifuged onto glass slides using a cytospin centrifuge (400g, 5 min) before fixation. […] Biotin azide-EdU click-it reaction was performed after fixation and permeabilization by incubating cells with a mix of Picolyl biotin, CuSO4, THPTA (Jena Bioscience) and sodium ascorbate in PBS for 30 min in the dark followed by an incubation with streptavidin conjugated Alex fluor 647 antibody (ThermoFisher Scientific) during 1 h at room temperature. Images were taken at 60× or 100× magnification using Upright Spinning disk Confocal Microscope (Roper/Zeiss) or at 40× magnification using DeltaVision (Deconvolution) Image Restoration Microscope. […] Images were analysed using the Fiji software. […]"}, "[1]": {"tested_on": "Polθ foci formation in RPE-1 cells expressing GFP–Polθ", "assay": "siRNA screen for ionizing radiation-induced Polθ foci formation", "assay_type": "cell-based, human", "conditions": "10 nM siRNA, 72 h, then 5 Gy, 2 h; cells with at least 5 Polθ foci; median RZ score of the three siRNAs, three replicate experiments", "description": "The Human DDR siRNA library comprising 1,746 single siRNAs representing 582 human genes (3 siRNAs per gene) was obtained from ThermoFisher Scientific (A30089). For controls, siRNAs targeting GL2, kinesin family member 11 (KIF11) and GM130 were used to assess transfection efficacy and induced cell toxicity. FANCD2 siRNA ([…]dT, defined as FANCD2-ctrl in Supplementary Table 1) was used as a positive control inhibiting Polθ foci formation. RPE-1 cells expressing GFP–Polθ (250 cells per well in 384-well plates) were grown overnight. siRNAs were incubated 15 min with 0.05 μl Interferin reagent (Polyplus transfection) and Opti-MEM (ThermoFisher Scientific) prior to being transferred into each 384-well plate wells, to obtain a 10 nM final concentration. Cells were irradiated 72 h after transfection, at a dose of 5 Gy (226 s) with the CIXD irradiator (RadeXp platform, Institut Curie) and incubated at 37 °C, 5% CO2 for 2 h. […] Polθ was then identified as organelles in the nuclei area and quantified by the average intensity of pixels within the defined organelles region. […] Corrected values were normalized as follows: sample median and median absolute deviation (MAD) were calculated from the Interferin-treated population of each internal plate data points (named as Ref pop) and used to compute robust Z-scores[59] […]"}, "Polθ foci in interphase": {"tested_on": "Polθ foci in interphase", "assay": "Polθ foci in interphase after siRNA", "assay_type": "cell-based, human", "conditions": "siRNA knockdown", "description": "as §1, §2"}, "PLK1 [2]": {"tested_on": "PLK1", "assay": "In vitro kinase assay of Polθ immunoprecipitates with recombinant PLK1", "assay_type": "biochemical", "conditions": "GFP–Polθ immunoprecipitate, recombinant PLK1 50, 100 or 500 ng, 5 μM ATP, [γ-32P]ATP, 30 min, 30 °C, autoradiography", "description": "Immunoprecipitates of GFP–Polθ (2 h GFP trap at 4 °C, followed by 2 washes with 150 mM NaCl buffer and 1 wash with 300 mM NaCl) or 1.2 μg of RBER-CDC25tide (Reaction Biology, 0590-0000-1) were resuspended in 30 μl kinase buffer (Cell Signaling, 9802) containing 50, 100 or 500 ng of recombinant PLK1 (Reaction Biology, 0183-0000-1) and 5 μM ATP and 5 μCi [γ-^32P]ATP. After incubation for 30 min at 30 °C, reactions were stopped on ice by the addition of 2× Laemmli buffer and boiling for 5 min at 95 °C. Samples were separated on a 4–8% Tris-acetate gel (or 10% SDS–PAGE for the CDC25 positive control), and phosphorylated ^32P-Polθ and CDC25 were detected by autoradiography."}, "PLK1 [3]": {"tested_on": "PLK1", "assay": "Real-time NMR phosphorylation of Polθ fragments by PLK1", "assay_type": "biochemical", "conditions": "SOFAST HMQC series, 298 K, 8 h, PLK1 1:200", "description": "(§3) The NMR experiments were performed on the Polθ protein fragments (E1424–Q1503) and (E1540–S1660), either ^15N- or ^15N,^13C-labelled, and dissolved in the NMR buffer (with in addition 7% v/v D2O and EDTA-free Protease Inhibitor Cocktail 1× (Roche)). Most experiments were recorded on a 700 MHz Bruker ADVANCE NEO spectrometer equipped with a triple resonance cryogenically cooled probe. ^1HN, ^13Cα, ^13Cβ, ^13CO and ^15N resonance frequencies of the non-phosphorylated fragments were assigned at 283 K using 2D ^1H–^15N SOFAST HMQC, 3D HNCA, 3D HNCACB, 3D CBCA(CO)NH, 3D HNCO, 3D HN(CA)CO and 3D HN(CA)NNH experiments. All 3D experiments were recorded using non uniform sampling (NUS: 40–50%). To monitor phosphorylation by PLK1, either ^15N- or ^15N,^13C-labelled Polθ protein fragments were mixed with PLK1, and a series of 16 2D NMR ^1H-^15N SOFAST HMQC experiments were recorded at 298 K during 8 h, each experiment being a 1,536 × 160 dataset acquired with 80 scans during 30 min[50]. The temperature was then set to 283 K and 2D ^1H–^15N SOFAST HMQC, 3D HNCA, 3D HNCACB, 3D CBCA(CO)NH and 3D HN(CA)NNH experiments were recorded, in order to assign the resonance frequencies of the phosphorylated fragments (here again with NUS at 40–50%). […]"}, "TOPBP1": {"tested_on": "TOPBP1", "conditions": "peptide on streptavidin beads, HeLa nuclear extract 350 μg, 2 h room temperature, immunoblot", "protocol": "Peptides were coupled to streptavidin beads in 150 mM NaCl on a rotating wheel at room temperature, for 1 h. Beads were washed twice in 150 mM NaCl prior to use in pull-down assays. Nuclear extracts from HeLa cells (350 μg) or 2 ml of bacteria protein extracts were incubated with 1 nmol of desired streptavidin beads-coupled peptide, on a rotating wheel, for 2 h, at room temperature. After incubation, beads were washed three times using 150 mM NaCl RIPA buffer, and twice using 300 mM NaCl before elution in 2× Laemmli buffer. All buffers used were supplemented with phosphatase and protease inhibitors. Eluted proteins were analysed by SDS–PAGE to identify peptide partners. The same amount of peptides used for pull-downs was loaded into a separate gel, and biotin signal was detected in the migration front. […] 1628-P/S1635-P: biotin-[sequence]pSFIWSGAp[sequence]. S1628/S1635: biotin-[sequence]."}, "[4]": {"biological_target": "T1, TOPBP1 BRCT7-8 domain, TOPBP1 fragment (1264–1493) (UniProt Q92547 1264-1493)", "T1 construct": "source: bacteria protein extracts named for the peptide pull-down", "T1 sequence (Q92547 1264-1493)": "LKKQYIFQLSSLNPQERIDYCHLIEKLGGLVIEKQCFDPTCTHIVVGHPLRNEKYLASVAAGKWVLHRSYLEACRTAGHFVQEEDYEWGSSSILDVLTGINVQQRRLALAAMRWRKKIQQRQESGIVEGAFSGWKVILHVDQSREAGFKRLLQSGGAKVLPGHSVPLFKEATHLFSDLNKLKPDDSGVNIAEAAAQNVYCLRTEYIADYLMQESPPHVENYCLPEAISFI", "assay": "NMR titration; 2D 1H-15N spectra of 15N-labelled Polθ (E1424-Q1503), phosphorylated or not, without and with TOPBP1 BRCT7-8 at a 1:0.5 ratio; 25 mM HEPES, 50 mM NaCl, pH 7", "conditions": "both partners purified"}, "TOPBP1 BRCT7-8": {"biological_target": "T2, TOPBP1 BRCT7-8 (Homo sapiens, UniProt Q92547)", "T2 construct": "GST (N); TEV cleavage site; made in house; host or cells: E. coli BL21 (DE3) Star", "T2 sequence (Q92547 1264-1493)": "as above", "assay": "2D NMR of 15N-labelled Polθ fragment with TOPBP1 BRCT7-8", "assay_type": "binding", "conditions": "2D 1H–15N, Polθ fragment:BRCT7-8 1:0.5, 25 mM HEPES, 50 mM NaCl, pH 7", "description": "as §3"}}, "data": [{"molecule": "ACAAAUACAUGGCUGGUUAdTdT (guide ACAAAUACAUGGCUGGUUATT; chemistry not fully specified) [TOPBP1, siRNA targeting TOPBP1]", "values": [{"measurement": "Polθ foci formation in mitosis", "setting": "Polθ foci in mitosis", "result": "suppressed Polθ foci (and filament) formation only in mitosis"}]}, {"molecule": "GUCUCCCAGAAGACAGUGAdTdT (sense GUCUCCCAGAAGACAGUGATT; chemistry not fully specified) [MDC1, siRNA targeting MDC1]", "values": [{"measurement": "Robust z score_corrected_Cells multi-foci_MultiFoci (%)", "setting": "[1]", "result": -2.42}, {"measurement": "Polθ foci formation in interphase", "setting": "Polθ foci in interphase", "result": "prevented the formation of Polθ foci in both interphase and mitosis"}, {"measurement": "Polθ foci formation in mitosis", "setting": "Polθ foci in mitosis", "result": "prevented the formation of Polθ foci in both interphase and mitosis"}]}, {"molecule": "Polθ: DNA polymerase theta", "values": [{"measurement": "phosphorylation of Polθ by PLK1", "setting": "PLK1 [2]", "result": "direct phosphorylation of Polθ by PLK1"}, {"measurement": "kinetics of Polθ phosphorylation by PLK1", "setting": "PLK1 [3]", "result": "fast kinetics of Polθ phosphorylation"}]}, {"molecule": "biotin-GSGTRQNHpSFIWSGApSFDLSPGLQRILDKVSS [1628-P/S1635-P]", "values": [{"measurement": "interaction with TOPBP1", "setting": "TOPBP1", "result": "did not interact with TOPBP1"}]}, {"molecule": "B1", "values": [{"measurement": "binding result", "setting": "[4]", "result": "binds"}]}, {"molecule": "B2", "values": [{"measurement": "binding result", "setting": "[4]", "result": "binds"}]}, {"molecule": "B3", "values": [{"measurement": "NMR signals lost upon addition of TOPBP1 BRCT7-8", "setting": "TOPBP1 BRCT7-8", "result": "NMR signals corresponding to the Polθ region (p-S1482–L1499) were lost upon addition of BRCT7-8"}]}, {"molecule": "B4", "values": [{"measurement": "NMR signals lost upon addition of TOPBP1 BRCT7-8", "setting": "TOPBP1 BRCT7-8", "result": "only a few NMR peaks were lost upon addition of TOPBP1 BRCT7-8"}]}]}
